{
  "source": "patent US20240400529A1",
  "about": "“COMPOSITIONS AND METHODS FOR THE PREVENTION AND/OR TREATMENT OF MITOCHONDRIAL DISEASE, INCLUDING FRIEDREICH'S ATAXIA” (Stealth BioTherapeutics Inc., priority 2019, published 2024)",
  "key": {"[1]": {"system": "frataxin deficient fibroblasts (Friedreich's ataxia patient, GM03665)", "format": "cell-based"}, "[2]": {"system": "HepG2 human hepatocarcinoma cells", "experiment": "Rotenone ATP Assay (Complex I by-pass)", "format": "cell-based", "settings": "summary statements also cover the Oxygraph assay", "method": "This assay has been adapted from Haefeli R H, Erb M, Gemperli A C, Robay D, Courdier Fruh I, et al. (2011) NQO1-Dependent Redox Cycling of Idebenone: Effects on Cellular Redox Potential and Energy Levels. PLOS ONE 6 (3): e17963. HepG2 human hepatocarcinoma cells were co-incubated with the electron transport chain Complex I toxin rotenone+/−compounds of interest and the corresponding effect on ATP synthesis was measured with a bioluminescent substrate.\nIn brief, HepG2 cells were plated at 25,000 cells per well in low glucose (1 gram/Liter) DMEM medium+10% fetal calf serum and incubated for 24 hours. The following day, the media was decanted and subsequently replaced with glucose free/serum free DMEM which has been supplemented with 50 micromolar rotenone and compound of interest. Serial dilutions of compound were prepared in 3× dilutions beginning at 25 micromolar. The cells were incubated for 60 minutes in a humidified tissue culture incubator. Following incubation, ATP levels were quantified via bioluminescent assay (Promega […] Glo Assay kit) and readings were captured on a standard microplate reader.\nATP bioluminescence is plotted versus the log of compound of interest and data were used to generate EC50 values. Curve fitting was performed using a sigmoidal dose response curve fit function (GraphPad Prism software).\nRobustness of curve fit was assessed as a quality control measure, with an R squared value of at least 0.80 being required for a successful curve fit. Compounds of interest showing an increase in ATP bioluminescence relative to vehicle control were verified in an independent biological replicate of n=3 technical replicates per dose.\nThis assay is a direct measure of the ability of compounds of interest to restore ATP production under conditions of inhibition of Complex I of the mitochondrial electron transport chain. As the majority of ATP produced via the electron transport chain is thought to derive from Complex I activity, significant impairment in Complex I function has dire biological consequences. Of note, Complex I mutations are thought to drive pathophysiology in multiple mitochondrial diseases, including Leigh syndrome and Leber's Hereditary Optic Neuropathy (LHON), while diminished Complex I activity and the resultant attenuation of ATP production has been shown in neurodegenerative diseases, including Friedreich's Ataxia, Parkinson's Disease and Huntington's Disease."}, "[3]": {"system": "GM03665 cells (fibroblasts from a subject with Friedreich's ataxia)", "experiment": "RSL3 Toxicity Assay (RSL3 Assay)", "format": "cell-based, human", "method": "In brief, GM03665 cells (Coriell Institute) were seeded in 96-well plates (Sarstedt) in DMEM cell culture media containing 10% Fetal Bovine serum and 1% Penicillin-Streptomycin (Pen-Strep) antibiotic mix at the amount of 2×10^4/mL (100 μL or 2×10^3 cells per well). Cells were left to rest overnight at 37° C. in a humidified atmosphere with 5% CO2 to allow attachment of the cells to the culture plate. Test compounds were prepared as DMSO stocks (10 mM) and were serially diluted in cell culture media to obtain 2× working solutions. Cell media was discarded and replaced by 50 μL of test compound solutions or cell media with vehicle for control wells. Within 15 minutes, 2× working solution (4 μM) of 1S,3R-RSL3 (CAS #1219810-16-8, Sigma-Aldrich) (diluted from 5 mM DMSO stock in cell culture media) was added. Final reaction volume was 100 μL and final DMSO concentration in reaction was kept below 0.2% (v/v) and equal in all wells. Final RSL3 concentration was 2 μM and test compound final concentrations in reaction were up to 1000 nM. After 24 hours of incubation cell viability was assessed by MTT test. MTT (Sigma-Aldrich) solution 1 mg/mL in 1×PBS (pH=7,4) was prepared 1 hour before the assay and filtered through Filtropur S 0.2 filters (Sarstedt). Cell media with test compounds was discarded and 100 μL of MTT solution was added to cells. The plates were incubated for 2 hours at +37° C. Thereafter, the MTT solution was removed and 100 μL of isopropanol was added to dissolve sediment. Absorption at 570 and 650 nm was measured using Hidex Sense microplate reader."}, "[4]": {"system": "intact HepG2 cells", "experiment": "Rotenone Oxygraph Assay (high-resolution respirometry)", "format": "cell-based, human", "settings": "1 μM rotenone, 10 μM compound", "method": "The Oxygraph-2k (O2k, OROBOROS INSTRUMENTS, Austria) was used for measurements of respiration of intact cells. The respirometry was performed in Dulbecco's Modified Eagle Medium (DMEM) high glucose without supplements. All experiments were performed at 37° C.\nHepG2 cells (ATCC collection code HB-8065™) were cultured in 10 cm^2 culture dishes in DMEM high glucose medium supplemented with 10% fetal bovine serum (FBS) and 100 units/mL penicillin and 100 μg/mL streptomycin until approximately 90% confluence was reached. Immediately prior to performing the respirometric assay, the cells were washed with media without FBS, trypsinized and resuspended in DMEM high glucose without FBS.\nThe final concentration of intact cells in the O2k-chamber was 0.5.10^6/mL. After stabilization of respiration, the Complex I inhibitor, rotenone, at 1 μM final concentration was added to inhibit electron flux via Complex I. Then, compound to be tested was added at 10 μM final concentration, and the change in respiration rate of intact cells was monitored."}, "[5]": {"system": "Nrf-2 responsive genes", "experiment": "Nrf-2 Activation Assay (Nrf-2 Assay)", "format": "cell-based, human", "settings": "FIG. 7; 1 μM, 24 hours", "method": "This assay was developed internally and was designed to determine if the novel test compounds disclosed herein active Nrf-2 and thereby promote resolution of inflammation by the mechanism believed to be responsible for the activity of omaveloxolone.\nBriefly, GM03665 Eriedreich Ataxia patient fibroblasts were grown in 12 Well Plates (TC Cell+F) (Sarstedt, Nümbrecht Germany), at a density of 12×10^4 cells/per well in DMEM/F12 (Gibco, ThermoFisher Scientific, Waltham, MA, USA) cell media supplemented with 10% FBS and 1% Pen/Strep. Cells were left to rest overnight at 37° C. in a humidified atmosphere with 5% CO2 to allow attachment of the cells to the culture plate. Before continuing assay visual inspection of each well was done by light microscopy to detect any possible bacterial and fungal contamination. […] After incubation, cell media was removed and total RNA from the cells was isolated using E.Z.N.A.® Total RNA Kit I (Omega Bio-tek, Norcross, Georgia, USA) spin columns, and first-strand cDNA synthesis was carried out using a High Capacity cDNA Reverse Transcription Kit (Applied Biosystems™, Foster City, CA) following the manufacturer's instructions. qPCR analysis of gene expression was performed by mixing SYBR® Green Master Mix (Applied Biosystems™) with synthesized cDNA and forward and reverse primers. […] (60 cycles), and 95° C. for 60 seconds, followed by melt curve analysis at 72-95° C., 0.3° C./sec. The relative expression levels for each gene were calculated with the ΔΔCt method and normalized to the expression of REEP5 and SNRPD3 genes."}, "[6]": {"biological_target": "lipoxygenase-15 enzyme (Glycine max (Soybean) (Glycine hispida), UniProt P08170)", "experiment": "Lipoxygenase-15 Assay (LO-15 Assay)", "format": "biochemical", "settings": "reduced forms tested"}},
  "note": "Entries after “also recorded” stand apart in the source; their conditions may differ.",
  "data": [
    {"smiles": "CC1=C(C)C(=O)C(CC[C@](C)(O)CCCCCCCCC(F)(F)F)=C(C)C1=O", "note": "[Compound N, (R)-2,3,5-trimethyl-6-(12,12,12-trifluoro-3-hydroxy-3-methyldodecyl)cyclo-hexa-2,5-diene-1,4-dione]", "values": [
      {"measurement": "protection from BSO induced cell death / ferroptosis, in words", "setting": "[1]", "result": "possess both activities; also recorded: able to prevent ferroptotic cell death; also recorded: active"},
      {"measurement": "Complex I by-pass activity / restoring ATP production, in words", "setting": "[2]", "result": "possess both activities"},
      {"measurement": "activity in the RSL3 Assay, in words", "setting": "[3]", "result": "active; also recorded: able to prevent ferroptotic cell death"},
      {"measurement": "Rotenone Oxygraph Assay % Increase (Table 7)", "setting": "[4]", "result": "44.8 +/− 10.3%"},
      {"measurement": "activation of Nrf-2 responsive genes / pathway, in words", "setting": "[5]", "result": "do not activate"},
      {"measurement": "lipoxygenase-15 inhibition, in words", "setting": "[6]", "result": "effective inhibitors"}
    ]}
  ]
}
